Data set [1] can be described thus: 24 hour rat pharmacokinetics. The following applies: male.
In a further data set the target is ROCK2 (Homo sapiens (Human), UniProt O75116). As to the kind of experiment: ROCK2 inhibition assay (HotSpot, 33P-ATP). It is filed as biochemical.
Data set [2] is described as follows: 24 hour mouse pharmacokinetics. It is filed as in vivo, B6SJLF1/J mice. Here is the method: Groups 2, 3, 4, 6, and 8: Test article was dissolved in a minimal amount of DMSO (Groups 2, 4, 6, 8: 40-50 μL, Group 3: 100 μL), 0.5% methylcellulose was added to final volume, then solution was sonicated for 2 minutes.
Group 7: Test article was dissolved in 100 μL DMSO, saline was added to final volume, then solution was sonicated for 2 minutes.
Groups 1, 5: The test article was administered as a single dose via slow bolus intravenous administration into a lateral tail vein, with a 27G needle.
Groups 2, 4, 6, 7, 8: The test article was administered as a single dose directly to the stomach by oral gavage.
Group 3: The test article was administered as a single dose in two parts with an approximate 1-2-minute rest between due to volume administered.
Approximately 150 μL of blood was collected by tail nick for the first time point and then the maximal volume by cardiac stick for the second, terminal time point in each mouse. The plasma was spun and separated within 30 minutes of collection and stored frozen at −20° C. until shipment.
Prior to the terminal blood collection, CSF was collected. […] The resulting data is shown in Tables 13, 14, 15, 16 and 17 below.

For another data set, the target named is hERG (Homo sapiens (Human), UniProt Q12809). As to the kind of experiment: biochemical.
Sequence of hERG (Q12809 whole entry): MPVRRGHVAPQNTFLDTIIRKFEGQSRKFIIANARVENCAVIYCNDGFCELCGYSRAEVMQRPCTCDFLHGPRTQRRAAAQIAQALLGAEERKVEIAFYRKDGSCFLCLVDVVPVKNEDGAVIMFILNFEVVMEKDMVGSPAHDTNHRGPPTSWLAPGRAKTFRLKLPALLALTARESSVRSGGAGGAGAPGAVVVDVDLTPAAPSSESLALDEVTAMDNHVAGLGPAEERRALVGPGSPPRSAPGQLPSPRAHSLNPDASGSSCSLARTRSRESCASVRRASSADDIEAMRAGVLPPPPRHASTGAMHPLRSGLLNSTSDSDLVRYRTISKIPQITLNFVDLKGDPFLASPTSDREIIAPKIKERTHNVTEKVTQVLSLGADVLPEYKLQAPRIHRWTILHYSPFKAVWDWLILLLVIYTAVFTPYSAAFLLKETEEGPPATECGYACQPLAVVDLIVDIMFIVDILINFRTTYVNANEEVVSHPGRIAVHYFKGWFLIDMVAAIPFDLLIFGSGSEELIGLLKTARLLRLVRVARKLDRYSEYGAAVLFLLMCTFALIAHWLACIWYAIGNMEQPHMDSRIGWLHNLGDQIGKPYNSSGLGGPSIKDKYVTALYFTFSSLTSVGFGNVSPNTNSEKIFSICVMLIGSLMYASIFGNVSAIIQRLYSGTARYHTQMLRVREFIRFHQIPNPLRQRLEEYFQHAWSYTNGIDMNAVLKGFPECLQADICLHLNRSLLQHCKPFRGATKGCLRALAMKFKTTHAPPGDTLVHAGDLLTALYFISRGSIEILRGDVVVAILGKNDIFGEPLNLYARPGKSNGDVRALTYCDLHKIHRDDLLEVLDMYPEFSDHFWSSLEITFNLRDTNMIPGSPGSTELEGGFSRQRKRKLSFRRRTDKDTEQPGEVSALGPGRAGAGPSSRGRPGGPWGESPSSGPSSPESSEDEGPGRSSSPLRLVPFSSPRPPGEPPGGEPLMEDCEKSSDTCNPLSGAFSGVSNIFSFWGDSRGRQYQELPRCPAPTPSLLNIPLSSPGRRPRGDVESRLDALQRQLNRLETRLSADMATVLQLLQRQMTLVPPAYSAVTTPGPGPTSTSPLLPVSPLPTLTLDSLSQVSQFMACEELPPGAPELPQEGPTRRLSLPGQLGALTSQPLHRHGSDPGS
In the next data set the target is PKA (Homo sapiens (Human), UniProt P17612). As to the kind of experiment: PKA inhibition assay (HotSpot, 33P-ATP). In kind it is biochemical. Particulars: Table 2B; 10 μM ATP; Compound 1 is geometric mean of multiple experiments. Here is the method: (§1) Compounds as a powder were dissolved in dimethyl sulfoxide to make a 10 mM stock. […] The HotSpot kit employing ^33P-ATP was used with reactions conducted at 10 μM ATP for each tested enzyme. The percent activity relative to DMSO controls for each concentration was then fitted to a curve using GraphPad Prism to determine the IC50. […] Each experiment was run in the same lab with this procedure.

The next data set addresses PRKX (Homo sapiens (Human), UniProt P51817). As to the kind of experiment: PRKX inhibition assay (HotSpot, 33P-ATP). It is filed as biochemical. The following applies: Table 2B; 10 μM ATP; Compound 1 is geometric mean of multiple experiments. Here is the method:
as §1

A further data set has as its target ROCK1 (Homo sapiens (Human), UniProt Q13464). As to the kind of experiment: ROCK1 inhibition assay (HotSpot, 33P-ATP). The following applies: Table 2A; 10 μM ATP. In kind it is biochemical.

SMILES strings stand for the structures. Some results are limits rather than exact numbers.

Sequence of ROCK2 (O75116 whole entry): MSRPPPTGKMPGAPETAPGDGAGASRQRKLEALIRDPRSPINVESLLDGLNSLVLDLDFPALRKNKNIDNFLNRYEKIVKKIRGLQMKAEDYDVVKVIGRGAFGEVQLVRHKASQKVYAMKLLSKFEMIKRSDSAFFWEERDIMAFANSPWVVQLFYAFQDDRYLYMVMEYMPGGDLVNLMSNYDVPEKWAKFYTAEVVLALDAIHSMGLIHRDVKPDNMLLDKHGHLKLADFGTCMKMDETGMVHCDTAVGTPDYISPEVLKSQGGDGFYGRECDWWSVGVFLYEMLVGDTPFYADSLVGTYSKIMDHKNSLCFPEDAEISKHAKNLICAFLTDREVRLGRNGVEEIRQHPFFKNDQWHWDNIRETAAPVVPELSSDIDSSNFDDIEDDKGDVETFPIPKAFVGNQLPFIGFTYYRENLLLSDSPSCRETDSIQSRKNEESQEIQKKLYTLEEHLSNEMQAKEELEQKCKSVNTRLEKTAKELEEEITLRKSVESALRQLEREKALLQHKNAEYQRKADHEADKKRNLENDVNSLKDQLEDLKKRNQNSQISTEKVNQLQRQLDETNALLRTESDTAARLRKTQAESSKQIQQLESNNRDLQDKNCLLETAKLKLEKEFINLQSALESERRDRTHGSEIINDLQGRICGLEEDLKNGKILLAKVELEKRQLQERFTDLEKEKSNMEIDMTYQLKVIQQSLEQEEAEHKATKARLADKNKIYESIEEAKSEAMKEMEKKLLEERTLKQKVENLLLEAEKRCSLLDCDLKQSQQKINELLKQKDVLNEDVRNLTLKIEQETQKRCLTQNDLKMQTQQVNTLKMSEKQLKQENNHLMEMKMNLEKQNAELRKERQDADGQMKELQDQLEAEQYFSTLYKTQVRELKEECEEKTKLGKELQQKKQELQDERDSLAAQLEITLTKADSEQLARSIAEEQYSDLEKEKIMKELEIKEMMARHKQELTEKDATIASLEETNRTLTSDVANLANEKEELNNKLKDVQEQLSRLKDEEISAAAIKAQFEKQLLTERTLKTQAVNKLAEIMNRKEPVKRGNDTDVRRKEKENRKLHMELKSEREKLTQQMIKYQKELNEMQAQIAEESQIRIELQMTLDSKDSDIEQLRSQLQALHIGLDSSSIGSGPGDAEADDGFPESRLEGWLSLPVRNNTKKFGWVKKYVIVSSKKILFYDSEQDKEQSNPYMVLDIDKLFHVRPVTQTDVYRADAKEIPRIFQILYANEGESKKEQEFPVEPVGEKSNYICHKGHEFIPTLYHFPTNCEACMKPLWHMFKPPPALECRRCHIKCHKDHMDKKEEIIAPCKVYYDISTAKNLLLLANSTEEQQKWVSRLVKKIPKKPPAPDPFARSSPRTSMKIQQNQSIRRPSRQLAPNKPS
Sequence of PRKX (P51817 whole entry): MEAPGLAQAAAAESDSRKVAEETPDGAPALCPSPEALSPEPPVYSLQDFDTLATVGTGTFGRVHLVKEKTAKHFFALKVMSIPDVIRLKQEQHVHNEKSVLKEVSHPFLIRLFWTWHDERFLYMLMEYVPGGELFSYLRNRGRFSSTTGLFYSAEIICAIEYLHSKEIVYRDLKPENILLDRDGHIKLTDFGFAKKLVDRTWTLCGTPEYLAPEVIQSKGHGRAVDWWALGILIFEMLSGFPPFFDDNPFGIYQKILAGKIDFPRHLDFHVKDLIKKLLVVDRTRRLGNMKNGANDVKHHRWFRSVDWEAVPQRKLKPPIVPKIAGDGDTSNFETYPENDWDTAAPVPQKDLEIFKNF
Sequence of ROCK1 (Q13464 whole entry): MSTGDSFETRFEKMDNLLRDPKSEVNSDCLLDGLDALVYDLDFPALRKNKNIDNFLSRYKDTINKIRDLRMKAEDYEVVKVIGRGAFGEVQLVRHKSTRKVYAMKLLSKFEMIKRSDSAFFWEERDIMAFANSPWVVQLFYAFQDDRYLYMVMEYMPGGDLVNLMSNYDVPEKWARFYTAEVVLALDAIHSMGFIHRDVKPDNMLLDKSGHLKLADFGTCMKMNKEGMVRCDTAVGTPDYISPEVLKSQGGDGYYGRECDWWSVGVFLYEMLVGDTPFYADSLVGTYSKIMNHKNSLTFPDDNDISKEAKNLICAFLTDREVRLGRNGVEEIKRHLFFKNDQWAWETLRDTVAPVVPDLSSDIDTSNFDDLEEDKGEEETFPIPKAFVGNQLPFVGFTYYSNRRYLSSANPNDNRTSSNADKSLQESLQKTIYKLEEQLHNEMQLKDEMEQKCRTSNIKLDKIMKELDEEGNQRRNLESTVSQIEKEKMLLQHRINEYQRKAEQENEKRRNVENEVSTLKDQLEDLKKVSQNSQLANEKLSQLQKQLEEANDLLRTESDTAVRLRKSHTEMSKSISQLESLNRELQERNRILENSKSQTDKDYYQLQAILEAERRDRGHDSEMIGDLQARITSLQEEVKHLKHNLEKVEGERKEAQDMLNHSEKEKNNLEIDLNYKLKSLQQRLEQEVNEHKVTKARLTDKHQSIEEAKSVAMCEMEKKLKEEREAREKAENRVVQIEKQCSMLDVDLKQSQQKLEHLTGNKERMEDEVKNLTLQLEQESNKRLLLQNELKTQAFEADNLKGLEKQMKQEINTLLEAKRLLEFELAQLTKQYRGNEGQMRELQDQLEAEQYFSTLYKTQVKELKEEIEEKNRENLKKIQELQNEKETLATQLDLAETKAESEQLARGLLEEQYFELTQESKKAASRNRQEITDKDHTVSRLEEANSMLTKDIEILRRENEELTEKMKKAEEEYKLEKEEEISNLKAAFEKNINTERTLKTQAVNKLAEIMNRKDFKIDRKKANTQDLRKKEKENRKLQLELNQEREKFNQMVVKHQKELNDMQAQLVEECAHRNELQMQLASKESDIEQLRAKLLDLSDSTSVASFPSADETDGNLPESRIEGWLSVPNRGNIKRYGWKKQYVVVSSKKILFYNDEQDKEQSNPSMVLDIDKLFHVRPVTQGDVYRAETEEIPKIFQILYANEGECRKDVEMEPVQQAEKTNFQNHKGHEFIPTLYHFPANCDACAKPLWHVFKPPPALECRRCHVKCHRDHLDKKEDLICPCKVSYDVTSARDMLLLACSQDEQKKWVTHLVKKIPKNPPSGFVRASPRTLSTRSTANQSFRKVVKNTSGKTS

What is called Kd is the equilibrium constant for the complex coming apart. Take `Cn1c(C(=O)NCc2ccccc2F)cc2ccc(-c3cn[nH]c3)nc21` [Compound 1, N-(2-fluorobenzyl)-1-methyl-6-(1H-pyrazol-4-yl)-1H-pyrrolo[2,3-b]pyridine-2-carboxamide]: the AUC0-t/D in data set [1] (IV 3 mg/kg) is 1541 (h * ng/ml)/(mg/kg); in data set [1] (PO 10 mg/kg) it was 261 (h * ng/ml)/(mg/kg); in data set [2] (IV 3 mg/kg, male), 3380 (h * ng/ml)/(mg/kg); in data set [2] (PO 10 mg/kg, female), 567 (h * ng/ml)/(mg/kg); in data set [2] (PO 10 mg/kg, male), 535 (h * ng/ml)/(mg/kg); in data set [2] (PO 100 mg/kg, male), 441 (h * ng/ml)/(mg/kg). Also, the “concentration required to inhibit half of ROCK2's activity, lower than Fasudil” value at ROCK2 (head-to-head against Fasudil) is reported as “more than 50 fold”. Further, the “Ratio to 10 mg/kg Dose Level, AUC0-∞” value in data set [2] (PO 100 mg/kg, male) was determined as 8.00. The same compound gave a dissociation constant Kd on hERG above 100 µM.

Broadly, the IC50 is the concentration that inhibits the measured activity by half. Higher therefore signals weaker potency. In the case of `Cc1[nH]ncc1-c1ccc2cc(C(=O)NCc3c(Cl)cccc3C3(O)CC3)[nH]c2n1` [Compound 6, N-(2-chloro-6-(1-hydroxycyclopropyl)benzyl)-6-(5-methyl-1H-pyrazol-4-yl)-1H-pyrrolo[2,3-b]pyridine-2-carboxamide], the half-maximal inhibitory concentration (IC50) amounted to 103 nM on PKA; 32.3 nM at PRKX; 10.1 nM at ROCK2 (Table 2A, 10 μM ATP); 35.6 nM against ROCK1.

Source of the values: patent US20240254124A1, “AZAINDOLE ROCK INHIBITORS” (priority 2022, published 2024).
